Test results reported in PubChem BioAssay AID248 (DTP/NCI, 2004).
Several values for one entry are separate records, joined by “and”; a condition that tells them apart may be missing. Equal entries are not always repeated. Toxic doses and inconclusive results are not listed. Rule as the data show it: active = T/C of 150% or more; inactive = T/C below 125%.

Tested on: L1210 leukemia ip in BDF1 mice, survival T/C
Assay: NCI In Vivo Anticancer Drug Screen. Data for tumor model L1210 Leukemia (intraperitoneal) in B6D2F1 (BDF1) mice
Settings: endpoint: mean survival time, higher = longer survival
In short: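 Value reflects the ratio of survival in compound-treated mice to survival in vehicle-treated controls, with both groups carrying the same transplanted tumor.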

[1] = dose: 100.0 mg/kg/injection, schedule: Q04DX003 (ip), vehicle: Klucel (hydroxypropylcellulose) (HPC)
[2] = dose: 200.0 mg/kg/injection, schedule: Q04DX003 (ip), vehicle: Klucel (hydroxypropylcellulose) (HPC)
[3] = dose: 400.0 mg/kg/injection, schedule: Q04DX003 (ip), vehicle: Klucel (hydroxypropylcellulose) (HPC)
[4] = dose: 25.0 mg/kg/injection, schedule: Q01DX009 (ip), vehicle: saline
[5] = dose: 50.0 mg/kg/injection, schedule: Q01DX009 (ip), vehicle: saline
[6] = dose: 100.0 mg/kg/injection, schedule: Q01DX009 (ip), vehicle: saline
[7] = dose: 100.0 mg/kg/injection, schedule: Q04DX003 (ip), vehicle: saline
[8] = dose: 200.0 mg/kg/injection, schedule: Q04DX003 (ip), vehicle: saline
[9] = dose: 400.0 mg/kg/injection, schedule: Q04DX003 (ip), vehicle: saline
[10] = dose: 75.0 mg/kg/injection, schedule: Q01DX001 (ip), vehicle: saline
[11] = dose: 200.0 mg/kg/injection, schedule: Q01DX009 (ip), vehicle: saline
[12] = dose: 400.0 mg/kg/injection, schedule: Q01DX009 (ip), vehicle: saline
[13] = dose: 100.0 mg/kg/injection, schedule: Q01DX001 (ip), vehicle: carboxymethylcellulose (CMC)
[14] = dose: 200.0 mg/kg/injection, schedule: Q01DX001 (ip), vehicle: carboxymethylcellulose (CMC)
[15] = dose: 400.0 mg/kg/injection, schedule: Q01DX001 (ip), vehicle: carboxymethylcellulose (CMC)
[16] = dose: 100.0 mg/kg/injection, schedule: Q01DX009 (ip), vehicle: Klucel (hydroxypropylcellulose) (HPC)
[17] = dose: 200.0 mg/kg/injection, schedule: Q01DX009 (ip), vehicle: Klucel (hydroxypropylcellulose) (HPC)
[18] = dose: 400.0 mg/kg/injection, schedule: Q01DX009 (ip), vehicle: Klucel (hydroxypropylcellulose) (HPC)

Measured: T/C

CCC(C)SC1=NC(N)=NC2=NC=NC21 (stereo unspecified)
inactive: dose: 50.0 mg/kg/injection, schedule: Q04DX003 (ip), vehicle: carboxymethylcellulose (CMC) 118 % of control | dose: 100.0 mg/kg/injection, schedule: Q04DX003 (ip), vehicle: carboxymethylcellulose (CMC) 122 % of control

CC1=NCCC[N-]CC[N-]CCCN=C1C.[Ni+2].[O-][Cl+3]([O-])([O-])O
inactive: dose: 100.0 mg/kg/injection, schedule: Q04DX002 (ip), vehicle: saline 94 % of control | dose: 200.0 mg/kg/injection, schedule: Q04DX002 (ip), vehicle: saline 94 % of control | dose: 400.0 mg/kg/injection, schedule: Q04DX002 (ip), vehicle: saline 98 % of control

N#CCC1=Cc2ccccc2CC1
inactive: dose: 6.25 mg/kg/injection, schedule: Q01DX005 (ip), vehicle: saline 109 % of control | dose: 12.5 mg/kg/injection, schedule: Q01DX005 (ip), vehicle: saline 102 % of control | dose: 25.0 mg/kg/injection, schedule: Q01DX005 (ip), vehicle: saline 102 % of control | dose: 50.0 mg/kg/injection, schedule: Q01DX005 (ip), vehicle: saline 106 % of control and 107 % of control

O=C(O)C1CCCC1C(=O)O (stereo unspecified)
inactive: dose: 75.0 mg/kg/injection, schedule: Q04DX003 (ip), vehicle: saline 94 % of control | dose: 150.0 mg/kg/injection, schedule: Q04DX003 (ip), vehicle: saline 102 % of control | dose: 300.0 mg/kg/injection, schedule: Q04DX003 (ip), vehicle: saline 95 % of control

Cc1cc(NCCCN(C)C)c2c(c1N)C(=O)c1ccccc1C2=O
inactive: [1] 88 % of control | [2] 92 % of control | [3] 92 % of control

CCCCCCCC(=O)O[C@H]1[C@H]2[C@@H](CC1(C)C)C(=O)[C@]13O[C@H]1C(=O)[C@]1(CO1)[C@]23C
inactive: dose: 5.0 mg/kg/injection, schedule: Q01DX009 (ip), vehicle: saline with Tween-80 108 % of control | dose: 10.0 mg/kg/injection, schedule: Q01DX009 (ip), vehicle: saline with Tween-80 119 % of control | dose: 10.0 mg/kg/injection, schedule: Q04DX003 (ip), vehicle: saline with Tween-80 97 % of control | dose: 20.0 mg/kg/injection, schedule: Q01DX009 (ip), vehicle: saline with Tween-80 86 % of control | dose: 20.0 mg/kg/injection, schedule: Q04DX003 (ip), vehicle: saline with Tween-80 99 % of control

C=C(C)C1CCC2(C(=O)O)CCC3(C)C(CCC4C5(C)CCC(O)C(C)(C)C5CCC43C)C12 (stereo unspecified)
inactive: [1] 104 % of control | [2] 97 % of control | [3] 96 % of control

O=C1c2ccccc2-c2cccc3ccc(C4CCCCC4)c1c23
inactive: dose: 100.0 mg/kg/injection, schedule: Q01DX001 (ip), vehicle: saline with Tween-80 88 % of control | dose: 200.0 mg/kg/injection, schedule: Q01DX001 (ip), vehicle: saline with Tween-80 88 % of control | dose: 400.0 mg/kg/injection, schedule: Q01DX001 (ip), vehicle: saline with Tween-80 92 % of control

CSc1nc2nc(Cl)c(Cl)nc2[nH]1
inactive: dose: 12.5 mg/kg/injection, schedule: Q01DX009 (ip), vehicle: saline 105 % of control | [4] 102 % of control and 104 % of control | [5] 102 % of control | [6] 98 % of control | [7] 97 % of control | [8] 98 % of control | [9] 108 % of control

C[N+](C)(C)C1CCCCC1
inactive: [10] 110 % of control and 106 % of control | dose: 150.0 mg/kg/injection, schedule: Q01DX001 (ip), vehicle: saline 105 % of control and 106 % of control

CC(=O)Oc1ccc(OC(C)=O)c2c1CC1(C)OC1(C)C2 (stereo unspecified)
inactive: [4] 104 % of control | [5] 91 % of control | [6] 89 % of control | [11] 93 % of control | [12] 89 % of control

CN1CCC=C(CN(c2ccccc2)c2ccccc2)C1
inactive: [4] 93 % of control | dose: 25.0 mg/kg/injection, schedule: Q04DX003 (ip), vehicle: saline 92 % of control | [5] 100 % of control | dose: 50.0 mg/kg/injection, schedule: Q04DX003 (ip), vehicle: saline 96 % of control | [6] 91 % of control | [7] 95 % of control

CCNC(=NC)c1ccc(NC(=O)c2ccc(C(=O)Nc3ccc(C(=NC)NCC)cc3)cc2)cc1
active: dose: 2.9 mg/kg/injection, schedule: Q01DX Z (ip), vehicle: carboxymethylcellulose (CMC) 153 % of control
inactive: dose: 1.3 mg/kg/injection, schedule: Q01DX Z (ip), vehicle: carboxymethylcellulose (CMC) 98 % of control | dose: 1.9 mg/kg/injection, schedule: Q01DX Z (ip), vehicle: carboxymethylcellulose (CMC) 96 % of control | dose: 4.4 mg/kg/injection, schedule: Q01DX Z (ip), vehicle: carboxymethylcellulose (CMC) 119 % of control | dose: 6.6 mg/kg/injection, schedule: Q01DX Z (ip), vehicle: carboxymethylcellulose (CMC) 116 % of control | dose: 10.0 mg/kg/injection, schedule: Q01DX Z (ip), vehicle: carboxymethylcellulose (CMC) 110 % of control | dose: 15.0 mg/kg/injection, schedule: Q01DX Z (ip), vehicle: carboxymethylcellulose (CMC) 98 % of control

CC(CN1c2ccccc2Sc2ccc(Cl)cc21)N(C)CCCl (stereo unspecified)
inactive: dose: 75.0 mg/kg/injection, schedule: Q01DX001 (ip), vehicle: carboxymethylcellulose (CMC) 106 % of control and 114 % of control

CNC(=O)C1=Cc2cc(Cl)ccc2OC1
inactive: dose: 75.0 mg/kg/injection, schedule: Q04DX003 (ip), vehicle: saline with Tween-80 98 % of control | dose: 150.0 mg/kg/injection, schedule: Q04DX003 (ip), vehicle: saline with Tween-80 92 % of control | dose: 300.0 mg/kg/injection, schedule: Q04DX003 (ip), vehicle: saline with Tween-80 95 % of control

COc1ccc([N+](=O)[O-])cc1NC(=O)C(Cl)Cl
inactive: [13] 99 % of control | [14] 100 % of control | [15] 110 % of control

CC1(C)CNC(C(=O)O)C1 (stereo unspecified)
inactive: dose: 100.0 mg/kg/injection, schedule: Q01DX009 (ip), vehicle: saline with Tween-80 100 % of control | [7] 96 % of control | dose: 200.0 mg/kg/injection, schedule: Q01DX009 (ip), vehicle: saline with Tween-80 96 % of control | [8] 95 % of control | [9] 98 % of control

COC(=O)CCC(=O)Nc1cccc2cnccc12
inactive: [7] 102 % of control | [9] 102 % of control

CN1CCC2(C1)C1CC3CC(C1)CC2C3 (stereo unspecified)
inactive: [10] 97 % of control

CCN(CC)C(=O)Cn1ccc(NC(C)=O)nc1=O
inactive: [6] 104 % of control | [7] 106 % of control | [11] 98 % of control | [8] 113 % of control | [12] 98 % of control | [9] 111 % of control

Cc1cc2c(C)nc3ccccc3n2c1O
inactive: dose: 50.0 mg/kg/injection, schedule: Q01DX009 (ip), vehicle: Klucel (hydroxypropylcellulose) (HPC) 103 % of control | [16] 103 % of control | [17] 98 % of control

COc1ccc(-c2cnc(=O)[nH]c2N)cc1
inactive: [1] 101 % of control | [2] 104 % of control

Cc1c(Cl)cccc1NC(=O)c1ccccc1Cl
inactive: [16] 94 % of control | [7] 122 % of control | [17] 94 % of control | [8] 108 % of control | [18] 95 % of control | [9] 108 % of control

Cc1ccc(Cl)cc1NC(=O)Nc1ccccc1Cl
inactive: [16] 92 % of control | [1] 101 % of control | [17] 91 % of control | [2] 95 % of control | [3] 93 % of control

CN(C(=O)c1ccc([N+](=O)[O-])cc1)c1ccccc1
inactive: dose: 50.0 mg/kg/injection, schedule: Q01DX001 (ip), vehicle: carboxymethylcellulose (CMC) 100 % of control | [13] 118 % of control | [16] 103 % of control | dose: 100.0 mg/kg/injection, schedule: Q04DX002 (ip), vehicle: Klucel (hydroxypropylcellulose) (HPC) 93 % of control | [14] 108 % of control | [17] 96 % of control | dose: 200.0 mg/kg/injection, schedule: Q04DX002 (ip), vehicle: Klucel (hydroxypropylcellulose) (HPC) 90 % of control | [15] 96 % of control | [18] 100 % of control | dose: 400.0 mg/kg/injection, schedule: Q04DX002 (ip), vehicle: Klucel (hydroxypropylcellulose) (HPC) 123 % of control

O=c1ccc2nc3ccccc3sc-2c1
inactive: dose: 100.0 mg/kg/injection, schedule: Q04DX003 (ip), vehicle: saline with Tween-80 89 % of control
